From paper PMC5617480 (Oncotarget, 2017)
Read-outs that look alike come from different tables or passages of the source.

Key:
ctDNA [1] = system: ctDNA; set-up: method as in earlier work; conditions: ref [1], cited from earlier work; for ctDNADC50/ctDNADC50: FID selectivity ratio; for ctDNADC50: FID
[2] = system: F21T (DNA, G4) GGGCTAGGGCTAGGGCTAGGG; assay: FRET melting; conditions: 100 mM K+; 10 mM Tris-HCl, pH 7.35; 2.0 μM compound, 1.0 μM DNA
Pu27 (c-myc) G4 [3] = system: Pu27 (c-myc) G4; set-up: method as in earlier work; conditions: ref [1], cited from earlier work; for ctDNADC50/Pu27DC50: FID selectivity ratio; for Pu27DC50: FID
MGC80-3 cells = system: MGC80-3 cells; set-up: method as in earlier work; conditions: MGC80-3, 48 h; ref [1]; cited from earlier work
[4] = system: HTG21 (human telomeric) G4; set-up: method as in earlier work; conditions: ref [1], cited from earlier work; for ctDNADC50/HTG21DC50: FID selectivity ratio; for HTG21DC50: FID
BEL-7404 cells = system: BEL-7404 cells; set-up: method as in earlier work; conditions: BEL-7404, 48 h; ref [1]; cited from earlier work
ctDNA [5] = assay: FID assay; type: binding; conditions: for ctDNADC50: FID; for ctDNADC50/ctDNADC50: FID selectivity ratio
Protocol: (§1) We asked whether chiral platinum(II) complexes 4–6 have the ability to bind to G-quadruplex DNA. To address this, FRET assays, CD spectroscopy, G4-FID assays, and fluorescence titration analysis were performed. […] For G4-HTG21, the ^G4DC50 values of complexes 4–6 were 1.23, 1.26 and 0.99 μM, respectively; while, for G4-Pu27, the ^G4DC50 values were 1.01, 0.89, and 0.82 μM, respectively. In addition, the ^ctDNADC50/^G4DC50 ratio of the HTG21 and Pu27 G4s treated with complexes 4–6 was in the range of 50.54-90.65 and 71.56-110.67 folds, respectively. To further evaluate the binding ability of complexes 4–6 to Pu27 and HTG21G4s, CD spectroscopy and fluorescence titration analysis were performed. […] The quenching ability of complexes 4–6 to HTG21 and Pu27 G4 DNA fluorescence can be quantitatively estimated by their respective quenching constant (Kq), which was derived from the Stern-Volmer quenching equation. […] Finally, the selective binding of complexes 4–6 towards G4 DNA was analyzed by FRET-melting assays. […] In contrast, the ΔTm value for the F32T+H20M duplex DNA in the presence of complexes 4–6 was 1.18, 1.34, and 0.78 °C under the same conditions (Figure 4A). Altogether, our data indicated complexes 4–6, especially complex 6, is the best binder to G4 DNA, which caused DNA complex displaying the highest thermodynamic stability. […]
(§2) Supplementary Figure 20: FID results onto 4 (A), 5 (B) and 6 (C) toward DNA in sodium cacodylate buffer solution. […]

[6] = system: HTG21 (human telomeric) G4; assay: FID assay; type: binding; conditions: for HTG21DC50: FID; for ctDNADC50/HTG21DC50: FID selectivity ratio
Protocol: as §1, §2

Pu27 (c-myc) G4 [7] = assay: FID assay; type: binding; conditions: for Pu27DC50: FID; for ctDNADC50/Pu27DC50: FID selectivity ratio
Protocol: as §1, §2

Pu22 = assay: FID assay; type: binding; conditions: for Pu22DC50: FID; for ctDNADC50/Pu22DC50: FID selectivity ratio
Pu27 / G4-Pu27 DNA = assay: CD spectroscopy; type: binding; set-up: key to Extent of change at 290―295 nm (%): “—”represents no obvious changes in the peaks; conditions: DNA 10 μM, compound 20 μM; for Extent of change at 250―265 nm (%): given with ↓; for Extent of change at 290―295 nm (%): Pu27 (G4-Pu27)
Protocol: We asked whether chiral platinum(II) complexes 4–6 have the ability to bind to G-quadruplex DNA. To address this, FRET assays, CD spectroscopy, G4-FID assays, and fluorescence titration analysis were performed. […] For G4-HTG21, the ^G4DC50 values of complexes 4–6 were 1.23, 1.26 and 0.99 μM, respectively; while, for G4-Pu27, the ^G4DC50 values were 1.01, 0.89, and 0.82 μM, respectively. In addition, the ^ctDNADC50/^G4DC50 ratio of the HTG21 and Pu27 G4s treated with complexes 4–6 was in the range of 50.54-90.65 and 71.56-110.67 folds, respectively. To further evaluate the binding ability of complexes 4–6 to Pu27 and HTG21G4s, CD spectroscopy and fluorescence titration analysis were performed. […] The quenching ability of complexes 4–6 to HTG21 and Pu27 G4 DNA fluorescence can be quantitatively estimated by their respective quenching constant (Kq), which was derived from the Stern-Volmer quenching equation. […] Finally, the selective binding of complexes 4–6 towards G4 DNA was analyzed by FRET-melting assays. […] In contrast, the ΔTm value for the F32T+H20M duplex DNA in the presence of complexes 4–6 was 1.18, 1.34, and 0.78 °C under the same conditions (Figure 4A). Altogether, our data indicated complexes 4–6, especially complex 6, is the best binder to G4 DNA, which caused DNA complex displaying the highest thermodynamic stability.
www.impactjournals.com/oncotarget/ Oncotarget, Supplementary Materials 2017 […]
Supplementary Figure 23: CD spectra of Pu27 DNA (10 μM) in the absence of K+ upon addition of compounds (20 μM).

| ΔTm [2] [°C] | Compound | ctDNADC50/ctDNADC50 (ctDNA [1]) | ctDNADC50 (ctDNA [1]) [µM] | ctDNADC50/Pu27DC50 (Pu27 (c-myc) G4 [3]) | Pu27DC50 (Pu27 (c-myc) G4 [3]) [µM] | IC50 (MGC80-3 cells) [µM] | ctDNADC50/HTG21DC50 [4] | HTG21DC50 [4] [µM] | IC50 (BEL-7404 cells) [µM] | ctDNADC50 (ctDNA [5]) [µM] | ctDNADC50/ctDNADC50 (ctDNA [5]) | HTG21DC50 [6] [µM] | ctDNADC50/HTG21DC50 [6] | Pu27DC50 (Pu27 (c-myc) G4 [7]) [µM] | ctDNADC50/Pu27DC50 (Pu27 (c-myc) G4 [7]) | Pu22DC50 (Pu22) [µM] | ctDNADC50/Pu22DC50 (Pu22) | Extent of change at 250―265 nm (%) (Pu27 / G4-Pu27 DNA; G4-Pu27 (presence of K+)) | Extent of change at 290―295 nm (%) (Pu27 / G4-Pu27 DNA) | Extent of change at 250―265 nm (%) (Pu27 / G4-Pu27 DNA; Pu27 (absence of K+)) |
| --- | --- | --- | --- | --- | --- | --- | --- | --- | --- | --- | --- | --- | --- | --- | --- | --- | --- | --- | --- | --- |
| 12.95 | O=C(NC[C@@H](O)CO)c1cnc2c3c(cccc13)-c1ccccc1C2=O.[Cl-].[Cl-].[Pt+2] [ligand 2, R-(+)-FOA] | 1.00 | 39.98 | 22.59 | 1.77 | 45.8 ± 2.8 | 17.78 | 2.25 | 20.5 ± 0.1 |  |  |  |  |  |  |  |  |  |  |  |
| 20.07 | O=C(NC[C@H](O)CO)c1cnc2c3c(cccc13)-c1ccccc1C2=O.[Cl-].[Cl-].[Pt+2] [ligand 3, S-(–)-FOA] | 1.00 | 89.82 | 62.81 | 1.43 | 35.7 ± 2.9 | 48.55 | 1.85 | 15.4 ± 0.2 |  |  |  |  |  |  |  |  |  |  |  |

The next lines start with the compound.

| Compound | ΔTm [2] [°C] | ctDNADC50/ctDNADC50 (ctDNA [1]) | ctDNADC50 (ctDNA [1]) [µM] | ctDNADC50/Pu27DC50 (Pu27 (c-myc) G4 [3]) | Pu27DC50 (Pu27 (c-myc) G4 [3]) [µM] | IC50 (MGC80-3 cells) [µM] | ctDNADC50/HTG21DC50 [4] | HTG21DC50 [4] [µM] | IC50 (BEL-7404 cells) [µM] | ctDNADC50 (ctDNA [5]) [µM] | ctDNADC50/ctDNADC50 (ctDNA [5]) | HTG21DC50 [6] [µM] | ctDNADC50/HTG21DC50 [6] | Pu27DC50 (Pu27 (c-myc) G4 [7]) [µM] | ctDNADC50/Pu27DC50 (Pu27 (c-myc) G4 [7]) | Pu22DC50 (Pu22) [µM] | ctDNADC50/Pu22DC50 (Pu22) | Extent of change at 250―265 nm (%) (Pu27 / G4-Pu27 DNA; G4-Pu27 (presence of K+)) | Extent of change at 290―295 nm (%) (Pu27 / G4-Pu27 DNA) | Extent of change at 250―265 nm (%) (Pu27 / G4-Pu27 DNA; Pu27 (absence of K+)) |
| --- | --- | --- | --- | --- | --- | --- | --- | --- | --- | --- | --- | --- | --- | --- | --- | --- | --- | --- | --- | --- |
| O=C(NCC(O)CO)c1cnc2c3c(cccc13)-c1ccccc1C2=O.[Cl-].[Cl-].[Pt+2] (racemic) [ligand 1, R/S-(±)-FOA] | 13.19 | 1.00 | 63.96 | 39.24 | 1.63 | 32.4 ± 0.8 | 25.79 | 2.48 | 17.2 ± 0.1 |  |  |  |  |  |  |  |  |  |  |  |
| cis-[PtCl2(R-(+)-FOA)] [complex 5] |  |  |  |  |  |  |  |  |  | 63.69 | 1.00 | 1.26 | 50.54 | 0.89 | 71.56 | 1.74 | 36.60 | 57.01 | — | 62.63 |
| cis-[PtCl2(R/S-(±)-FOA)] [complex 4] |  |  |  |  |  |  |  |  |  | 75.87 | 1.00 | 1.23 | 61.68 | 1.01 | 75.11 | 7.41 | 10.24 | 67.47 | — | 72.16 |
| cis-[PtCl2(S-(–)-FOA)] [complex 6] |  |  |  |  |  |  |  |  |  | 90.73 | 1.00 | 0.99 |  | 0.82 | 110.67 | 1.14 | 79.59 | 76.23 | — | 80.88 |
